Like-named read-outs stand apart in the source and are kept apart here. Each block holds one compound with its values, some of them ahead of it.
Assays:
Aβ1-42 aggregates = molecular target: T1, Aβ1-42 aggregates (Homo sapiens, UniProt P05067); experiment: In-vitro competitive binding experiments (Ki determination) with Aβ1-42 aggregates; conditions: for affinity with the Aβ1-42 aggregates compared with IMPY and PIB: competitive binding experiments
T1 construct: Preparing receptor Aβ1-42 proteins according to the existing method
Procedure: Binding reaction occurs between Aβ1-42 aggregate proteins with certain concentration and radioactive ligands [^125I] […] 4, the compounds are separated after balancing, and the inhibition constant (Ki) is calculated by determining radioactivity.
(1) Preparing 4 l of PBS (0.2M) buffer solution with pH=7.4;
(2) Preparing radioligand [^125]
(3) Preparing the compounds to be determined into 10^−3 to 10^−9 mol/L continuously diluted ethanol solution;
(4) Preparing receptor Aβ1-42 proteins according to the existing method and diluting the proteins into 30 nM water solution;
(5) Soaking a glass fiber filter membrane in PBS solution containing 0.1% (volume fraction) polyethyleneimine for 0.5 h;
(6) Respectively adding 100 μl of solution of compounds with different concentration and to be determined, 100 μl of [^125I]
(7) Oscillating and incubating for 2 h in 37° C. constant-temperature water bath;
(8) Collecting reaction liquid by using a multi-head cell collector, and washing the reaction liquid for three times by using PBS, 3 ml per time;
(9) Measuring and counting by using a γ counter; and […]

[1] = Biological distribution in bodies of normal mice; assay type: in vivo, mice (ICR); conditions: caudal vein injection
Excerpt: Through in-vivo distribution experiments, pharmacokinetic features, especially initial bran intake and brain removal situations of ^18F or ^125I labeled compounds in the bodies of mice are studied. […] Data are expressed in radioactive percentage dosage per organ (% ID/organ) and radioactive percentage dosage per gram of organ (% ID/g).

logD of labeled ligands = assay type: physicochemical
[2] = competition against radioligand [^125I] IMPY, Aβ1-42 aggregates, 37° C., 2 h

T1 sequence (P05067 672-713 limits assumed): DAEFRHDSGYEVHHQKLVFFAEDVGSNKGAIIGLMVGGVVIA

Ki (Aβ1-42 aggregates): 28.7 ± 8 nM
SMILES: COc1ccc(OCc2ccc(I)cc2)cc1 [Compound 4, 1-iodo-4-((4-methoxyphenoxy)methyl) benzene]
affinity with the Aβ1-42 aggregates compared with IMPY and PIB (Aβ1-42 aggregates): higher than that of the known compounds IMPY and PIB

Ki (Aβ1-42 aggregates): 154 ± 5.6 nM
SMILES: COc1cccc(OCc2ccc(I)cc2)c1 [Compound 5, 1-(4-iodobenzyloxy)-3-methoxybenzene]

Ki (Aβ1-42 aggregates): 134 ± 28.1 nM
SMILES: Oc1ccc(OCc2ccc(I)cc2)cc1 [Compound 7, 4-(4-iodobenzyloxy) phenol]

Ki (Aβ1-42 aggregates): 456 ± 135 nM
SMILES: Oc1cccc(OCc2ccc(I)cc2)c1 [Compound 8, 3-(4-iodobenzyloxy) phenol]

Ki (Aβ1-42 aggregates): 3350 ± 611 nM
SMILES: Oc1ccccc1OCc1ccc(I)cc1 [Compound 9, 2-(4-iodobenzyloxy) phenol]

Ki (Aβ1-42 aggregates): 127 ± 18.2 nM
SMILES: Fc1ccc(OCc2ccc(I)cc2)cc1 [Compound 10, 1-fluoro-4-(4-iodobenzyloxy) benzene]

Ki (Aβ1-42 aggregates): 22.3 ± 2.6 nM
SMILES: Clc1ccc(OCc2ccc(I)cc2)cc1 [Compound 11, 1-chloro-4-(4-iodobenzyloxy) benzene]
affinity with the Aβ1-42 aggregates compared with IMPY and PIB (Aβ1-42 aggregates): higher than that of the known compounds IMPY and PIB

Ki (Aβ1-42 aggregates): 14.1 ± 1.2 nM
SMILES: Brc1ccc(OCc2ccc(I)cc2)cc1 [Compound 12, 1-bromo-4-(4-iodobenzyloxy) benzene]
affinity with the Aβ1-42 aggregates compared with IMPY and PIB (Aβ1-42 aggregates): higher than that of the known compounds IMPY and PIB

Ki (Aβ1-42 aggregates): 25.9 ± 2.4 nM
SMILES: Ic1ccc(COc2ccc(I)cc2)cc1 [Compound 13, 1-iodo-4-(4-iodobenzyloxy) benzene]
affinity with the Aβ1-42 aggregates compared with IMPY and PIB (Aβ1-42 aggregates): higher than that of the known compounds IMPY and PIB

Ki (Aβ1-42 aggregates): 93.9 ± 6.1 nM
SMILES: Ic1ccc(COc2ccccc2)cc1 [Compound 14, 1-iodo-4-(phenoxymethyl) benzene]

Ki (Aβ1-42 aggregates): 139 ± 20.9 nM
SMILES: CC(C)(C)c1ccc(OCc2ccc(I)cc2)cc1 [Compound 15, 1-tert-butyl-4-(4-iodobenzyloxy) benzene]

Ki (Aβ1-42 aggregates): 484 ± 53.2 nM
SMILES: Nc1ccc(OCc2ccc(I)cc2)cc1 [Compound 16, 4-(4-iodobenzyloxy) aniline]

Ki (Aβ1-42 aggregates): 1810 ± 189 nM
SMILES: Nc1cccc(OCc2ccc(I)cc2)c1 [Compound 17, 3-(4-iodobenzyloxy) aniline]

Ki (Aβ1-42 aggregates): 1220 ± 58 nM
SMILES: Nc1ccccc1OCc1ccc(I)cc1 [Compound 18, 2-(4-iodobenzyloxy) aniline]

Ki (Aβ1-42 aggregates): 57 ± 5.1 nM
SMILES: CNc1ccc(OCc2ccc(I)cc2)cc1 [Compound 19, 4-(4-iodobenzyloxy)-N-methylaniline]

Ki (Aβ1-42 aggregates): 702 ± 92.4 nM
SMILES: CNc1cccc(OCc2ccc(I)cc2)c1 [Compound 20, 3-(4-iodobenzyloxy)-N-methylaniline]

Ki (Aβ1-42 aggregates): > 20000 nM
SMILES: CNc1ccccc1OCc1ccc(I)cc1 [Compound 21, 2-(4-iodobenzyloxy)-N-methylaniline]

Ki (Aβ1-42 aggregates): 1060 ± 104 nM
SMILES: CN(C)c1cccc(OCc2ccc(I)cc2)c1 [Compound 23, 3-(4-iodobenzyloxy)-N,N-dimethylaniline]

Ki (Aβ1-42 aggregates): 58.5 ± 3.5 nM
SMILES: COc1ccc(COc2ccc(I)cc2)cc1 [Compound 24, 1-iodo-4-(4-methoxybenzyloxy) benzene]

The remaining lines, values behind:

SMILES: COc1ccccc1OCc1ccc(I)cc1 [Compound 6, 1-(4-iodobenzyloxy)-2-methoxybenzene]
Ki (Aβ1-42 aggregates): 6110 ± 458 nM

SMILES: CN(C)c1ccc(OCc2ccc(I)cc2)cc1 [Compound 22, 4-(4-iodobenzyloxy)-N,N-dimethylaniline]
Ki (Aβ1-42 aggregates): 20.9 ± 1.8 nM
affinity with the Aβ1-42 aggregates compared with IMPY and PIB (Aβ1-42 aggregates): higher than that of the known compounds IMPY and PIB

SMILES: COc1ccc(SCc2ccc(I)cc2)cc1 [Compound 25, (4-iodobenzyl) (4-methoxyphenyl) sulfane]
Ki (Aβ1-42 aggregates): 627 ± 129 nM

SMILES: FCCOc1ccc(OCc2ccc(I)cc2)cc1 [Compound 31a, 1-(2-fluoroethoxy)-4-((4-iodobenzyl)oxy) benzene]
Ki (Aβ1-42 aggregates): 24.1 ± 8.8 nM
affinity with the Aβ1-42 aggregates compared with IMPY and PIB (Aβ1-42 aggregates): higher than that of the known compounds IMPY and PIB

SMILES: FCCOc1ccc(COc2ccc(I)cc2)cc1 [Compound 35a, 1-(2-fluoroethoxy)-4-((4-iodophenoxy)methyl) benzene]
Ki (Aβ1-42 aggregates): 23 ± 3.3 nM
affinity with the Aβ1-42 aggregates compared with IMPY and PIB (Aβ1-42 aggregates): higher than that of the known compounds IMPY and PIB

SMILES: COc1ccc(OCc2ccc(OCCF)cc2)cc1 [Compound 44a, 1-(2-fluoroethoxy)-4-((4-methoxyphenoxy)methyl) benzene]
Ki (Aβ1-42 aggregates): 167 ± 34.5 nM

SMILES: CNc1ccc(OCc2ccc(OCCF)cc2)cc1 [Compound 46, 4-(4-(2-fluoroethoxy)benzyloxy)-N-methylaniline]
Ki (Aβ1-42 aggregates): 460 ± 82 nM

SMILES: CN(C)c1ccc(OCc2ccc(OCCF)cc2)cc1 [Compound 47, 4-(4-(2-fluoroethoxy)benzyloxy)-N,N-dimethylaniline]
Ki (Aβ1-42 aggregates): 23 ± 5.3 nM
affinity with the Aβ1-42 aggregates compared with IMPY and PIB (Aβ1-42 aggregates): higher than that of the known compounds IMPY and PIB

SMILES: COc1ccc(COc2ccc(OCCF)cc2)cc1 [Compound 53a, 1-(2-fluoroethoxy)-4-(4 methoxybenzyloxy) benzene]
Ki (Aβ1-42 aggregates): 465 ± 18.8 nM

SMILES: O=c1ccc(I)cn1Cc1ccc(I)cc1 [Compound 58]
Ki (Aβ1-42 aggregates; [2]): 1060 nM

SMILES: FCCOc1ccc(COc2cccnc2I)cc1 [Compound 65]
Ki (Aβ1-42 aggregates; [2]): 2080 ± 458 nM

SMILES: CN(C)c1ccc(CNc2ccc(I)cc2)cc1 [Compound 67, 4-(((4-iodophenyl)amino)methyl)-N,N-dimethylaniline]
Ki (Aβ1-42 aggregates): 124 ± 14.3 nM

SMILES: COc1ccc(OCc2ccc(OCC[18F])cc2)cc1 [[^18F]44a]
Blood ([1]; 2 min): 3.90 ± 0.25 % ID/g
Bone ([1]; 2 min): 1.50 ± 0.44 % ID/organ
Brain ([1]; 2 min): 7.54 ± 0.39 % ID/g
Blood ([1]; 10 min): 3.86 ± 0.24 % ID/g
Bone ([1]; 10 min): 1.04 ± 0.25 % ID/organ
Brain ([1]; 10 min): 3.32 ± 0.38 % ID/g
Blood ([1]; 30 min): 4.28 ± 0.23 % ID/g
Bone ([1]; 30 min): 1.43 ± 0.44 % ID/organ
Brain ([1]; 30 min): 2.77 ± 0.22 % ID/g
Blood ([1]; 60 min): 3.86 ± 0.39 % ID/g
Bone ([1]; 60 min): 4.05 ± 0.62 % ID/organ
Brain ([1]; 60 min): 2.33 ± 0.30 % ID/g
logD (logD of labeled ligands): [^18F]44a (logD = 3.05 ± 0.08)

SMILES: COc1ccc(COc2ccc(OCC[18F])cc2)cc1 [[^18F] 53a]
Blood ([1]; 2 min): 4.26 ± 0.41 % ID/g
Bone ([1]; 2 min): 2.37 ± 0.69 % ID/organ
Brain ([1]; 2 min): 9.95 ± 2.36 % ID/g
Blood ([1]; 10 min): 4.61 ± 0.95 % ID/g
Bone ([1]; 10 min): 2.76 ± 0.47 % ID/organ
Brain ([1]; 10 min): 2.77 ± 0.19 % ID/g
Blood ([1]; 30 min): 3.76 ± 0.19 % ID/g
Bone ([1]; 30 min): 4.02 ± 0.78 % ID/organ
Brain ([1]; 30 min): 1.44 ± 0.18 % ID/g
Blood ([1]; 60 min): 3.05 ± 1.09 % ID/g
Bone ([1]; 60 min): 5.89 ± 0.49 % ID/organ
Brain ([1]; 60 min): 1.30 ± 0.16 % ID/g
logD (logD of labeled ligands): [^18F] 53a (logD = 3.65 ± 0.04)

SMILES: COc1ccc(COc2ccc(OCCOCCOCC[18F])cc2)cc1 [[^18F] 53b]
Blood ([1]; 2 min): 3.95 ± 0.34 % ID/g
Bone ([1]; 2 min): 1.36 ± 0.35 % ID/organ
Brain ([1]; 2 min): 9.71 ± 1.31 % ID/g
Blood ([1]; 10 min): 4.14 ± 0.91 % ID/g
Bone ([1]; 10 min): 1.22 ± 0.42 % ID/organ
Brain ([1]; 10 min): 2.52 ± 0.20 % ID/g
Blood ([1]; 30 min): 3.40 ± 0.25 % ID/g
Bone ([1]; 30 min): 1.39 ± 0.54 % ID/organ
Brain ([1]; 30 min): 1.39 ± 0.10 % ID/g
Blood ([1]; 60 min): 2.36 ± 0.66 % ID/g
Bone ([1]; 60 min): 1.52 ± 0.27 % ID/organ
Brain ([1]; 60 min): 1.07 ± 0.10 % ID/g
logD (logD of labeled ligands): [^18F] 53b (logD = 3.04 ± 0.04)

SMILES: COc1ccc(OCc2ccc([125I])cc2)cc1 [[^125I]4]
Blood ([1]; 2 min): 3.03 ± 0.54 % ID/g
Brain ([1]; 2 min): 6.18 ± 0.99 % ID/g
Thyroid ([1]; 2 min): 0.14 ± 0.04 % ID/organ
Blood ([1]; 10 min): 3.32 ± 0.65 % ID/g
Brain ([1]; 10 min): 3.54 ± 0.35 % ID/g
Thyroid ([1]; 10 min): 0.12 ± 0.04 % ID/organ
Blood ([1]; 30 min): 2.56 ± 0.93 % ID/g
Brain ([1]; 30 min): 0.88 ± 0.15 % ID/g
Thyroid ([1]; 30 min): 0.08 ± 0.01 % ID/organ
Blood ([1]; 60 min): 1.70 ± 0.50 % ID/g
Brain ([1]; 60 min): 0.38 ± 0.05 % ID/g
Thyroid ([1]; 60 min): 0.11 ± 0.02 % ID/organ
logD (logD of labeled ligands): [^125I]4 (logD = 4.00 ± 0.08)

SMILES: CN(C)c1ccc(OCc2ccc([125I])cc2)cc1 [[^125I]22]
Blood ([1]; 2 min): 4.01 ± 0.28 % ID/g
Brain ([1]; 2 min): 4.91 ± 0.60 % ID/g
Thyroid ([1]; 2 min): 0.11 ± 0.03 % ID/organ
Blood ([1]; 10 min): 2.46 ± 0.30 % ID/g
Brain ([1]; 10 min): 3.26 ± 0.24 % ID/g
Thyroid ([1]; 10 min): 0.12 ± 0.03 % ID/organ
Blood ([1]; 30 min): 2.53 ± 0.27 % ID/g
Brain ([1]; 30 min): 1.34 ± 0.12 % ID/g
Thyroid ([1]; 30 min): 0.16 ± 0.04 % ID/organ
Blood ([1]; 60 min): 1.34 ± 0.26 % ID/g
Brain ([1]; 60 min): 0.49 ± 0.07 % ID/g
Thyroid ([1]; 60 min): 0.27 ± 0.04 % ID/organ
logD (logD of labeled ligands): [^125I]22 (logD = 2.89 ± 0.09)

SMILES: CN(C)c1ccc(-c2cn3cc([125I])ccc3n2)cc1 [[^125I]IMPY, reference compound]
Blood ([1]; 2 min): 3.85 ± 0.53 % ID/g
Brain ([1]; 2 min): 5.05 ± 0.38 % ID/g
Thyroid ([1]; 2 min): 0.12 ± 0.05 % ID/organ
Blood ([1]; 10 min): 2.81 ± 0.33 % ID/g
Brain ([1]; 10 min): 1.80 ± 0.12 % ID/g
Thyroid ([1]; 10 min): 0.09 ± 0.03 % ID/organ
Blood ([1]; 30 min): 1.50 ± 0.20 % ID/g
Brain ([1]; 30 min): 0.67 ± 0.15 % ID/g
Thyroid ([1]; 30 min): 0.22 ± 0.08 % ID/organ
Blood ([1]; 60 min): 1.03 ± 0.10 % ID/g
Brain ([1]; 60 min): 0.45 ± 0.07 % ID/g
Thyroid ([1]; 60 min): 0.30 ± 0.09 % ID/organ

— patent US20170037008A1, “PHENYL BENZYL ETHER DERIVATIVE AND PREPARATION METHOD AND APPLICATION THEREOF” (BEIJING ZHIBO BIO-MEDICAL TECHNOLOGY CO., LTD, priority 2013, published 2017)
